Results published in patent US6884810B2, “Benzimidazole derivatives” (Zeria Pharmaceutical Co., Ltd., priority 2001, dated 2005).

Tested on: gastric acid secreted under stimulation with histamine
Assay: Gastric acid secretion inhibition action, histamine-stimulated, acute Fistula method
Assay type: in vivo, Sprague-Dawley (SD) rats
Settings: Rattus norvegicus, SD rats, administered in the duodenum; histamine 8 mg/kg/h; total acid discharge at 3, 4 and 5 hours; Probit method
Procedure: (Gastric Acid Secretion Inhibition Action)
(1) Test Animals Employed were Sprague-Dawley (SD) Rats (7 Weeks Old, Male) Purchased from Charles River Japan, Inc. Before the Test, the Rats Were Fed for 5 Days or More.
Each test drug was suspended in, or dissolved in, 0.5% sodium carboxymethylcellulose solution, whereby a suspension or solution was prepared so as to attain 2.5 mL/kg.
(2) Measurement of Gastric Acid Secretion
The amount of gastric acid secreted under stimulation with histamine was measured on the rats fasted for 18 hours by use of the acute Fistula method as described by Hiramatsu et al. (Dig. Dis. Sci.,39, 689-697(1994)). Briefly, each rat was etherized lightly, and then a winged tubular needle filled with 3.8% citric acid solution was indwelled in the tail vein of the rat. The abdomen of the rat was opened, and the pyloric part of the stomach was ligated. Subsequently, a small hole was made in the duodenum, and the abdomen of the rat was closed with a feeding tube filled with saline indwelled. The inside of the stomach was washed with saline, a polyethylene-made Fistula tube (inner diameter: 4 mm) was set in the anterior stomach, and the cut portion of the anterior stomach was ligated and secured. The stomach and the duodenum were returned to the abdominal cavity, with the Fistula tube and the feeding tube exposed outside. The rat was placed in a Ballman cage II. Histamine was continuously administered through the winged injection needle which had been indwelled in the tail vein in advance (8 mg/kg/h, 1.38 mL/h). 15 Minutes thereafter, gastric juice of the rat was collected. Subsequently, collection of gastric juice was performed every one hour. Each time, the amount of the collected gastric juice was recorded, followed by titration with NaOH (0.1 mol/L) up to the end point pH 7.0. From the volume consumed for titration, acidity was calculated. The acid discharge amount was calculated as a product of the amount of the gastric juice and the acidity. Before starting the test, the rats were grouped so that the intra-group total amount of the gastric juice samples initially collected was the same between groups. Thereafter, each test drug was administered (2.5 mL/kg) in the duodenum through a feeding tube which had been attached to the duodenum in advance. To each rat of a control group, 0.5% Na-CMC solution was administered.
(3) Analysis of the Results
The data as obtained above are shown by way of mean±standard error. Total amount of acid discharge was obtained through summation of the amounts of acid discharge at three points in time; i.e., 3, 4 and 5 hours after initial collection of gastric juice. Percent inhibition of each group was computed from the total acid discharge amount of the control group and that of each group. On the basis of the percent inhibition calculated for each group, 50% effective dose (ED50) was computed by use of the Probit method.

Compound	ED50
COc1ccc2nc([S@@+]([O-])Cc3ncc(C)c(OC)c3C)[nH]c2c1 [esomeprazole, reference compound]	2.9 mg/kg
COc1c(OCCCC(F)(F)F)ccnc1C[S+]([O-])c1nc2ccccc2[nH]1 (stereo not drawn) [Example 1(2), 2-[3-methoxy-4-(4,4,4-trifluorobutoxy)pyridin-2-yl-methylsulfinyl]-1H-benzimidazole]	1.3 mg/kg
[O-][S+](Cc1cc(OCCCC(F)(F)F)ccn1)c1nc2ccccc2[nH]1 (stereo not drawn) [Example 9(3), 2-[4-(4,4,4-trifluorobutoxy)pyridin-2-yl-methanesulfinyl]-1H-benzimidazole]	0.32 mg/kg
Cc1c(OCC(F)(F)F)ccnc1C[S+]([O-])c1nc2ccccc2[nH]1 (stereo not drawn) [lansoprazole, reference compound]	1.1 mg/kg
COc1c(OCCOCC(F)(F)F)ccnc1C[S+]([O-])c1nc2ccccc2[nH]1 (single isomer, unassigned; (+)) [Example 3(2), (+)-2-{3-methoxy-4-[2-(2,2,2-trifluoroethoxy)ethoxy]pyridin-2-yl-methylsulfinyl}-1H-benzimidazole]	2.2 mg/kg
COCCCOc1ccnc(C[S+]([O-])c2nc3ccccc3[nH]2)c1C (stereo not drawn) [rabeprazole, reference compound]	2.5 mg/kg
COc1ccnc(C[S+]([O-])c2nc3ccc(OC(F)F)cc3[nH]2)c1OC (stereo not drawn) [pantoprazole, reference compound]	0.34 mg/kg
[O-][S+](Cc1cc(OCCOCC(F)(F)F)ccn1)c1nc2ccccc2[nH]1 (single isomer, unassigned; (-)) [Example 13(3), (−)-2-{4-[2-(2,2,2-trifluoroethoxy)ethoxy]pyridin-2-yl-methanesulfinyl}-1H-benzimidazole]	0.59 mg/kg
COc1ccc2[nH]c([S+]([O-])Cc3ncc(C)c(OC)c3C)nc2c1 (stereo not drawn) [omeprazole, reference compound]	3.6 mg/kg
COc1c(OCCOCC(F)(F)F)ccnc1C[S+]([O-])c1nc2ccccc2[nH]1 (stereo not drawn) [Example 2(2), 2-{3-methoxy-4-[2-(2,2,2-trifluoroethoxy)ethoxy]pyridin-2-yl-methylsulfinyl}-1H-benzimidazole]	1.9 mg/kg
[O-][S+](Cc1cc(OCCCC(F)(F)F)ccn1)c1nc2ccccc2[nH]1 (single isomer, unassigned; (-)) [Example 10(2), (−)-2-[4-(4,4,4-trifluorobutoxy)pyridin-2-yl-methanesulfinyl]-1H-benzimidazole]	0.97 mg/kg

Same assay, conditions: SD rats, administered in the duodenum; histamine 8 mg/kg/h; total acid discharge at 3, 4 and 5 hours; Probit method

Compound	Gastric-acid secretion inhibition action [ED50 (mg/kg)]
COc1c(OCCCC(F)(F)F)ccnc1C[S+]([O-])c1nc2ccccc2[nH]1 (single isomer, unassigned; (-)) [Example 6(1), (−)-2-[3-methoxy-4-(4,4,4-trifluorobutoxy)pyridin-2-yl-methanesulfinyl]-1H-benzimidazole]	1.4 mg/kg
